These results are taken from patent publication US20250144105A1, “CDK9 INHIBITORS” (Origenis GmbH, priority 2022, published 2025).

Molecules are shown by their SMILES. Bounds are passed on as bounds.

This assay addresses T1, CDK9/CyclinT1 (Homo sapiens, UniProt P50750).
T1 construct: purchased ProQinase/Reaction Biology, USA 0371-0345-1
The experiment in a line: CDK9/T1 ADPGlo kinase assay for inhibitory activity. The conditions noted are these: CDK9/CyclinT1 6 nM, PDKtide 40 microM, ATP 10 microM, 120 min at RT, luminescence readout. Type of assay: biochemical. The procedure: The testing compound was evaluated in 12 concentrations in a 1:3 dilution series, starting from 5 microM as the highest concentration.
In a white 384 microplate (Greiner bio-one, Austria #784904,) with 2 microL of 3-fold concentrated CDK9/CyclinT1 (ProQinase/Reaction Biology, USA #0371-0345-1, LOT.: 012), final concentration (f.c.) 6 nM, in 1× kinase buffer, 2 microL of compound (3× fold concentrated in f.c. 1.66% DMSO/H2O) was added and incubated at Room Temperature (RT) for 10 min. Then 2 microL of Substrate/ATP-Mix (3× PDKtide f.c. 40 microM, SignalChem Biotech, Canada via Biozol, Eching, Germany #P10-58, LOT.: L2230-7 and 3× UltraPure ATP f.c. 10 microM (ADP Glo Kinase assay, Promega GmbH, Germany #V9102)) were added, mixed and incubated for 120 min at RT.
After incubation time, 5 microL of ADP Glo reagent (ready to use, ADP Glo Kinase assay, Promega GmbH, Germany #V9102) were added, mixed and incubated for 40 min at RT. In the last step, 10 microL of ADP Glo Detection reagent (ready to use, ADP Glo Kinase assay, Promega GmbH, Germany #V9102) were added, mixed and incubated for 30 min at RT. GloMax Discover GM3000 Reader (Promega GmbH, Germany 9700000249) was used for the readout.
The inhibitor concentration was plotted against the luminescence to determine the IC50 using XLFit 5.5 (IDBS, Guildford) to fit to a sigmoidal dose response curve with a variable slope.

T1 sequence (P50750 whole entry): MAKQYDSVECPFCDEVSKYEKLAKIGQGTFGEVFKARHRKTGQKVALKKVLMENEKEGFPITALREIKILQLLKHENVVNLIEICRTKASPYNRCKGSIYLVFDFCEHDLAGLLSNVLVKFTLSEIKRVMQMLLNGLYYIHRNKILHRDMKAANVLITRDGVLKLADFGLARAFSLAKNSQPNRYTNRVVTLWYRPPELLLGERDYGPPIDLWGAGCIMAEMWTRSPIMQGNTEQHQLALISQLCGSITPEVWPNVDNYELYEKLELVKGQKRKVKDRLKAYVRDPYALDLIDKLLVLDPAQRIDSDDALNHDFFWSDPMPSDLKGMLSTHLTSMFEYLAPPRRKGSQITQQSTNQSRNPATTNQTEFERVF
T1 sequence (O60563 whole entry partner): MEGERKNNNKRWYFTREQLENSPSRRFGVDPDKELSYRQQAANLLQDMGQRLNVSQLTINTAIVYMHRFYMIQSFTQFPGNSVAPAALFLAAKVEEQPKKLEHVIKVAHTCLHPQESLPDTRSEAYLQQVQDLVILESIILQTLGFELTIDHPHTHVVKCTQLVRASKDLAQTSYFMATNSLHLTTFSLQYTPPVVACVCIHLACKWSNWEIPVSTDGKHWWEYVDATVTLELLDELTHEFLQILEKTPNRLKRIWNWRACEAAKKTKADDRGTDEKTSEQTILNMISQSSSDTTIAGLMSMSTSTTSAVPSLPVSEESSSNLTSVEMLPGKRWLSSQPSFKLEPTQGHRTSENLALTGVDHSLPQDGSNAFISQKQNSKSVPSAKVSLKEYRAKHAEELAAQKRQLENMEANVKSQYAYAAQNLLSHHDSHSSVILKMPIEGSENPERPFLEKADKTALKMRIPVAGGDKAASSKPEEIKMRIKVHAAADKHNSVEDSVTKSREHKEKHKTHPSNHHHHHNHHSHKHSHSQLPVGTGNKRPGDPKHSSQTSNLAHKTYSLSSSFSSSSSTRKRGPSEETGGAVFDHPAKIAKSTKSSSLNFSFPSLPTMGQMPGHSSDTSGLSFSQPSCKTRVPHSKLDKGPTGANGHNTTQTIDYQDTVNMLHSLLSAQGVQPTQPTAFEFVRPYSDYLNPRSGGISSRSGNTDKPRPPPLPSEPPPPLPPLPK

For the compound `CN1CCCCC1CNc1nc(-c2c(F)cccc2F)nn2c(Cl)cnc12` (stereo not shown) [Example #14, [7-Chloro-2-(2,6-difluoro-phenyl)-imidazo[2,1-f][1,2,4]triazin-4-yl]-(1-methyl-piperidin-2-ylmethyl)-amine], the IC50 (commonly the concentration that inhibits the measured activity by half) was less than 200 nM.

Regarding `Fc1cccc(F)c1-c1nc(NC2CCN(C3CCCC3)CC2)c2ncc(Cl)n2n1` [Example #12, 7-chloro-N-(1-cyclopentylpiperidin-4-yl)-2-(2,6-difluorophenyl)imidazo[2,1-f][1,2,4]triazin-4-amine], the half-maximal inhibitory concentration (IC50) is less than 200 nM.

Consider `Fc1cccc(F)c1-c1nc(NCCN2CCOCC2)c2ncc(Cl)n2n1` [Example #19, [7-Chloro-2-(2,6-difluoro-phenyl)-imidazo[2,1-f][1,2,4]triazin-4-yl]-(2-morpholin-4-yl-ethyl)-amine], for which the half-inhibitory concentration (IC50) was less than 200 nM.

In turn, `Fc1cccc(F)c1-c1nc(N[C@H]2CC[C@H](N3CCCCC3)CC2)c2ncc(Cl)n2n1` [Example #5, 7-chloro-2-(2,6-difluorophenyl)-N-((1r,4r)-4-(piperidin-1-yl)cyclohexyl)imidazo[2,1-f][1,2,4]triazin-4-amine] registered an IC50 of less than 20 nM.

In turn, `Fc1cccc(F)c1-c1nc(NCC2CCNCC2)c2ncc(Cl)n2n1` [Example #21, 7-chloro-2-(2,6-difluorophenyl)-N-(piperidin-4-ylmethyl)imidazo[2,1-f][1,2,4]triazin-4-amine] showed a half-inhibitory concentration (IC50) of less than 200 nM.

`Fc1cccc(F)c1-c1nc(N[C@H]2CC[C@H](N3CCCC3)CC2)c2ncc(Cl)n2n1` [Example #6, 7-chloro-2-(2,6-difluorophenyl)-N-((1r,4r)-4-(pyrrolidin-1-yl)cyclohexyl)imidazo[2,1-f][1,2,4]triazin-4-amine]: the IC50 is less than 20 nM.

Take `NC1CCC(Nc2nc(-c3c(F)cccc3F)nn3c(Cl)cnc23)C1` (stereo not shown) [Example #24, N1-(7-chloro-2-(2,6-difluorophenyl)imidazo[2,1-f][1,2,4]triazin-4-yl)cyclopentane-1,3-diamine]: the IC50 was less than 20 nM.

In turn, `CN1CCC(Nc2nc(-c3c(F)cccc3F)nn3c(Cl)cnc23)CC1` [Example #13, 7-chloro-2-(2,6-difluorophenyl)-N-(1-methylpiperidin-4-yl)imidazo[2,1-f][1,2,4]triazin-4-amine] came in with an IC50 of less than 20 nM.

`Fc1cccc(F)c1-c1nc(NC2CCN(C3CCOCC3)CC2)c2ncc(Cl)n2n1` [Example #11, 7-chloro-2-(2,6-difluorophenyl)-N-(1-(tetrahydro-2H-pyran-4-yl)piperidin-4-yl)imidazo[2,1-f][1,2,4]triazin-4-amine] had an IC50 of less than 200 nM.

As for `Fc1cccc(Cl)c1-c1nc(N[C@H]2CC[C@H](N3CCOCC3)CC2)c2ncc(Cl)n2n1` [Example #27, 7-chloro-2-(2-chloro-6-fluorophenyl)-N-((1r,4r)-4-morpholinocyclohexyl)imidazo[2,1-f][1,2,4]triazin-4-amine], the IC50 was less than 20 nM.

In the case of `CC(C)N1CCC(Nc2nc(-c3c(F)cccc3F)nn3c(Cl)cnc23)CC1` [Example #10, 7-chloro-2-(2,6-difluorophenyl)-N-(1-isopropylpiperidin-4-yl)imidazo[2,1-f][1,2,4]triazin-4-amine], the half-maximal inhibitory concentration (IC50) was less than 200 nM.

`Fc1cccc(F)c1-c1nc(NCC2CCCNC2)c2ncc(Cl)n2n1` (stereo not shown) [Example #22, 7-chloro-2-(2,6-difluorophenyl)-N-(piperidin-3-ylmethyl)imidazo[2,1-f][1,2,4]triazin-4-amine] yielded a 50% inhibitory concentration (IC50) of less than 200 nM.

As for `Fc1cccc(F)c1-c1nc(N[C@H]2CC[C@H](N3CCOCC3)CC2)c2ncc(Cl)n2n1` [Example #1, 7-chloro-2-(2,6-difluorophenyl)-N-((1r,4r)-4-morpholinocyclohexyl)imidazo[2,1-f][1,2,4]triazin-4-amine], the half-inhibitory concentration (IC50) is less than 20 nM.

Consider `CN(C)[C@H]1CC[C@H](Nc2nc(-c3c(F)cccc3F)nn3c(Cl)cnc23)CC1` [Example #3, (1r,4r)-N1-(7-chloro-2-(2,6-difluorophenyl)imidazo[2,1-f][1,2,4]triazin-4-yl)-N4,N4-dimethylcyclohexane-1,4-diamine], for which the IC50 was less than 20 nM.

As for `Fc1cccc(F)c1-c1nc(NCc2cccnc2)c2ncc(Cl)n2n1` [Example #36, 7-chloro-2-(2,6-difluorophenyl)-N-(pyridin-3-ylmethyl)imidazo[2,1-f][1,2,4]triazin-4-amine], the IC50 is less than 200 nM.

Regarding `Cc1cc(C)c(CNc2nc(-c3c(F)cccc3F)nn3c(Cl)cnc23)cn1` [Example #37, 7-chloro-2-(2,6-difluorophenyl)-N-((4,6-dimethylpyridin-3-yl)methyl)imidazo[2,1-f][1,2,4]triazin-4-amine], the IC50 was less than 200 nM.

As for `OCCN[C@H]1CC[C@H](Nc2nc(-c3c(F)cccc3F)nn3c(Cl)cnc23)CC1` [Example #32, 2-(((1r,4r)-4-((7-chloro-2-(2,6-difluorophenyl)imidazo[2,1-f][1,2,4]triazin-4-yl)amino)cyclohexyl)amino)ethan-1-ol], the IC50 is less than 20 nM.

On to `Fc1cccc(F)c1-c1nc(NC2CN3CCC2CC3)c2ncc(Cl)n2n1` (stereo not shown) [Example #18, (1-Aza-bicyclo[2.2.2]oct-3-yl)-[7-chloro-2-(2,6-difluoro-phenyl)-imidazo[2,1-f][1,2,4]triazin-4-yl]-amine], for which the IC50 is less than 200 nM.

In the case of `N[C@H]1CC[C@H](Nc2nc(-c3c(F)cccc3F)nn3c(Cl)cnc23)CC1` [Example #4, (1r,4r)-N1-(7-chloro-2-(2,6-difluorophenyl)imidazo[2,1-f][1,2,4]triazin-4-yl)cyclohexane-1,4-diamine], the half-inhibitory concentration (IC50) was less than 20 nM.

`FCCCN[C@H]1CC[C@H](Nc2nc(-c3c(F)cccc3F)nn3c(Cl)cnc23)CC1` [Example #9, (1r,4r)-N1-(7-chloro-2-(2,6-difluorophenyl)imidazo[2,1-f][1,2,4]triazin-4-yl)-N4-(3-fluoropropyl)cyclohexane-1,4-diamine]: the IC50 was less than 20 nM.

`CN1CCN([C@H]2CC[C@H](Nc3nc(-c4c(F)cccc4F)nn4c(Cl)cnc34)CC2)CC1` [Example #38, 7-chloro-2-(2,6-difluorophenyl)-N-((1r,4r)-4-(4-methylpiperazin-1-yl)cyclohexyl)imidazo[2,1-f][1,2,4]triazin-4-amine] yielded a 50% inhibitory concentration (IC50) of less than 20 nM.

`FCCN[C@H]1CC[C@H](Nc2nc(-c3c(F)cccc3F)nn3c(Cl)cnc23)CC1` [Example #8, (1r,4r)-N1-(7-chloro-2-(2,6-difluorophenyl)imidazo[2,1-f][1,2,4]triazin-4-yl)-N4-(2-fluoroethyl)cyclohexane-1,4-diamine] registered a 50% inhibitory concentration (IC50) of less than 20 nM.

`CCN1CCCC1CNc1nc(-c2c(F)cccc2F)nn2c(Cl)cnc12` (stereo not shown) [Example #15, 7-chloro-2-(2,6-difluorophenyl)-N-((1-ethylpyrrolidin-2-yl)methyl)imidazo[2,1-f][1,2,4]triazin-4-amine] gave a half-inhibitory concentration (IC50) of less than 200 nM.

As to `Clc1cccc(Cl)c1-c1nc(N[C@H]2CC[C@H](N3CCOCC3)CC2)c2ncc(Cl)n2n1` [Example #28, 7-chloro-2-(2,6-dichlorophenyl)-N-((1r,4r)-4-morpholinocyclohexyl)imidazo[2,1-f][1,2,4]triazin-4-amine], the IC50 was less than 20 nM.

In turn, `CN1CCC(CNc2nc(-c3c(F)cccc3F)nn3c(Cl)cnc23)CC1` [Example #17, [7-Chloro-2-(2,6-difluoro-phenyl)-imidazo[2,1-f][1,2,4]triazin-4-yl]-(1-methyl-piperidin-4-ylmethyl)-amine] had an IC50 of less than 20 nM.

In turn, `CC(C)(C)OC(=O)N1CCCC(CNc2nc(-c3c(F)cccc3F)nn3c(Cl)cnc23)C1` (stereo not shown) [Example #20, tert-butyl 3-(((7-chloro-2-(2,6-difluorophenyl)imidazo[2,1-f][1,2,4]triazin-4-yl)amino)methyl)piperidine-1-carboxylate] came in with a half-inhibitory concentration (IC50) of less than 200 nM.

`COCCN[C@H]1CC[C@H](Nc2nc(-c3c(F)cccc3F)nn3c(Cl)cnc23)CC1` [Example #7, (1r,4r)-N1-(7-chloro-2-(2,6-difluorophenyl)imidazo[2,1-f][1,2,4]triazin-4-yl)-N4-(2-methoxyethyl)cyclohexane-1,4-diamine] had a half-inhibitory concentration (IC50) of less than 20 nM.

`Fc1cccc(F)c1-c1nc(NC2CCNCC2)c2ncc(Cl)n2n1` [Example #16, [7-Chloro-2-(2,6-difluoro-phenyl)-imidazo[2,1-f][1,2,4]triazin-4-yl]-piperidin-4-yl-amine] came in with a 50% inhibitory concentration (IC50) of less than 20 nM.
